The supplement of paper PMC11061612

What was measured:
[1] = test system: BL-41 (Burkitt's Lymphoma); experiment: Bliss excess, mean over the matrix (fraction); higher = more synergy
In short: (§1)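 Bliss excess equals the observed combination effect minus the expected value EA + EB − EA·EB, where EA and EB are the effects of each agent alone. Combination Emax is the second-highest inhibition within the matrix. Inhibition was scaled from CellTiter-Glo 2.0 luminescence, with 0 set by vehicle wells and 1 by blank wells, after 72 hours of two-drug dosing of cells plated in 1536-well plates.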

[2] = test system: BFTC-905 (Bladder Carcinoma); experiment: as above
In short: as §1

[3] = test system: SW837 (Colorectal Carcinoma); experiment: as above
In short: as §1

NCI-H2818 (Mesothelioma) [4] = experiment: as above
In short: as §1

[5] = test system: NCI-H1792 (Lung Adenocarcinoma); experiment: as above
In short: as §1

[6] = test system: K-562 (Chronic Myelogenous Leukemia); experiment: as above
In short: as §1

ES1 (Ewing's Sarcoma) [7] = experiment: as above
In short: as §1

[8] = test system: DND-41 (T-Lymphoblastic Leukemia); experiment: as above
In short: as §1

TC-71 (Ewing's Sarcoma) [9] = experiment: as above
In short: as §1

WIL2-NS (Non-Cancerous) [10] = experiment: as above
In short: as §1

WM-115 (Melanoma) [11] = experiment: as above
In short: as §1

[12] = test system: TE-6 (Esophageal Squamous Cell Carcinoma); experiment: as above
In short: as §1

[13] = test system: SW1417 (Colorectal Carcinoma); experiment: as above
In short: as §1

[14] = test system: MKN28 (Gastric Carcinoma); experiment: as above
In short: as §1

[15] = test system: GR-ST (B-Lymphoblastic Leukemia); experiment: as above
In short: as §1

[16] = test system: SR (Other Blood Carcinomas); experiment: as above
In short: as §1

ES8 (Ewing's Sarcoma) [17] = experiment: as above
In short: as §1

[18] = test system: L-540 (Hodgkin's Lymphoma); experiment: as above
In short: as §1

U251 (Low Grade Glioma) [19] = experiment: as above
In short: as §1

[20] = test system: CAMA-1 (Breast Carcinoma); experiment: as above
In short: as §1

[21] = test system: BL-41 (Burkitt's Lymphoma); experiment: combination Emax (second highest fraction inhibited in the dose matrix, 72 h); higher = more inhibition; extreme values may be limits of the assay
In short: as §1

[22] = test system: BFTC-905 (Bladder Carcinoma); experiment: as above
In short: as §1

[23] = test system: SW837 (Colorectal Carcinoma); experiment: as above
In short: as §1

NCI-H2818 (Mesothelioma) [24] = experiment: as above
In short: as §1

[25] = test system: NCI-H1792 (Lung Adenocarcinoma); experiment: as above
In short: as §1

[26] = test system: K-562 (Chronic Myelogenous Leukemia); experiment: as above
In short: as §1

ES1 (Ewing's Sarcoma) [27] = experiment: as above
In short: as §1

[28] = test system: DND-41 (T-Lymphoblastic Leukemia); experiment: as above
In short: as §1

TC-71 (Ewing's Sarcoma) [29] = experiment: as above
In short: as §1

WIL2-NS (Non-Cancerous) [30] = experiment: as above
In short: as §1

WM-115 (Melanoma) [31] = experiment: as above
In short: as §1

[32] = test system: TE-6 (Esophageal Squamous Cell Carcinoma); experiment: as above
In short: as §1

[33] = test system: SW1417 (Colorectal Carcinoma); experiment: as above
In short: as §1

[34] = test system: MKN28 (Gastric Carcinoma); experiment: as above
In short: as §1

[35] = test system: GR-ST (B-Lymphoblastic Leukemia); experiment: as above
In short: as §1

[36] = test system: SR (Other Blood Carcinomas); experiment: as above
In short: as §1

ES8 (Ewing's Sarcoma) [37] = experiment: as above
In short: as §1

[38] = test system: L-540 (Hodgkin's Lymphoma); experiment: as above
In short: as §1

U251 (Low Grade Glioma) [39] = experiment: as above
In short: as §1

[40] = test system: CAMA-1 (Breast Carcinoma); experiment: as above
In short: as §1

For `CS(=O)(=O)CCNCc1ccc(-c2ccc3ncnc(Nc4ccc(OCc5cccc(F)c5)c(Cl)c4)c3c2)o1` [Lapatinib] + NC1(c2ccc(-c3nc4ccn5c(=O)[nH]nc5c4cc3-c3ccccc3)cc2)CCC1 [MK-2206] (first compound max 10 µM, 7x7, partner max 10 µM), the Bliss excess [1] was 0.0176, the Bliss excess [2] was 0.0323 and the Bliss excess [3] was 0.0106. It also gave a Bliss excess (NCI-H2818 (Mesothelioma) [4]) of -0.0155, a Bliss excess [5] of 0.0243 and a Bliss excess [6] of -0.0367. It also gave a Bliss excess (ES1 (Ewing's Sarcoma) [7]) of 0.0341, a Bliss excess [8] of 0.0377 and a Bliss excess (TC-71 (Ewing's Sarcoma) [9]) of -0.0342. For the same compound, the Bliss excess (WIL2-NS (Non-Cancerous) [10]) was 0.0569, the Bliss excess (WM-115 (Melanoma) [11]) was -0.0093 and the Bliss excess [12] was -0.0159. It also gave a Bliss excess [13] of 0.0395, a Bliss excess [14] of -0.0445 and a Bliss excess [15] of -0.0298. For the same compound, the Bliss excess [16] was 0.0147, the Bliss excess (ES8 (Ewing's Sarcoma) [17]) was -0.004 and the Bliss excess [18] was -0.0209. For the same compound, the Bliss excess (U251 (Low Grade Glioma) [19]) was -0.0083, the Bliss excess [20] was 0.0301 and the “combination Emax” value [21] was 0.942. For the same compound, the “combination Emax” value [22] was 0.888, the “combination Emax” value [23] was 0.633 and the “combination Emax” value (NCI-H2818 (Mesothelioma) [24]) was 0.351. For the same compound, the “combination Emax” value [25] was 0.785, the “combination Emax” value [26] was 0.602 and the “combination Emax” value (ES1 (Ewing's Sarcoma) [27]) was 0.97. For the same compound, the “combination Emax” value [28] was 0.946, the “combination Emax” value (TC-71 (Ewing's Sarcoma) [29]) was 0.589 and the “combination Emax” value (WIL2-NS (Non-Cancerous) [30]) was 0.674. The “combination Emax” value (WM-115 (Melanoma) [31]) was 0.855, the “combination Emax” value [32] was 0.816 and the “combination Emax” value [33] was 0.459. The “combination Emax” value [34] was 0.687, the “combination Emax” value [35] was 0.981 and the “combination Emax” value [36] was 0.819. The “combination Emax” value (ES8 (Ewing's Sarcoma) [37]) was 0.851, the “combination Emax” value [38] was 0.918 and the “combination Emax” value (U251 (Low Grade Glioma) [39]) was 0.454. For the same compound, the “combination Emax” value [40] was 0.909.

`Cc1nc(-c2cn3c(n2)-c2ccc(-c4cnn(C(C)(C)C(N)=O)c4)cc2OCC3)n(C(C)C)n1` [Taselisib] + O=C(Nc1ccc2[nH]nc(-c3ccncc3)c2c1)[C@@H]1CCN(CC(=O)N2CCN(c3ccc(-c4ncccn4)cc3)CC2)C1 [SCH772984] (first compound max 10 µM, 7x7, partner max 5 µM) gave a Bliss excess [1] of 0.0266, a Bliss excess [2] of 0.172 and a Bliss excess [3] of 0.0556. For the same compound, the Bliss excess (NCI-H2818 (Mesothelioma) [4]) was 0.0096, the Bliss excess [5] was 0.0818 and the Bliss excess [6] was 0.0488. It also gave a Bliss excess (ES1 (Ewing's Sarcoma) [7]) of 0.0604, a Bliss excess [8] of 0.14 and a Bliss excess (WIL2-NS (Non-Cancerous) [10]) of 0.106. It also gave a Bliss excess (WM-115 (Melanoma) [11]) of 0.0394, a Bliss excess [13] of 0.0781 and a Bliss excess [14] of 0.0966. The Bliss excess [15] was -0.0418, the Bliss excess [16] was 0.177 and the Bliss excess (ES8 (Ewing's Sarcoma) [17]) was 0.117. The Bliss excess [18] was 0.0023, the Bliss excess [20] was 0.0216 and the “combination Emax” value [21] was 0.263. The “combination Emax” value [22] was 0.999, the “combination Emax” value [23] was 0.747 and the “combination Emax” value (NCI-H2818 (Mesothelioma) [24]) was 0.372. For the same compound, the “combination Emax” value [25] was 0.966, the “combination Emax” value [26] was 0.53 and the “combination Emax” value (ES1 (Ewing's Sarcoma) [27]) was 0.77. For the same compound, the “combination Emax” value [28] was 0.611, the “combination Emax” value (WIL2-NS (Non-Cancerous) [30]) was 0.728 and the “combination Emax” value (WM-115 (Melanoma) [31]) was 0.951. For the same compound, the “combination Emax” value [33] was 0.756, the “combination Emax” value [34] was 0.451 and the “combination Emax” value [35] was 0.706. The “combination Emax” value [36] was 0.681, the “combination Emax” value (ES8 (Ewing's Sarcoma) [37]) was 0.84 and the “combination Emax” value [38] was 0.474. For the same compound, the “combination Emax” value [40] was 0.563.

For `CC1(C)CCC(CN2CCN(c3ccc(C(=O)NS(=O)(=O)c4ccc(NCC5CCOCC5)c([N+](=O)[O-])c4)c(Oc4cnc5[nH]ccc5c4)c3)CC2)=C(c2ccc(Cl)cc2)C1` [Venetoclax] + CS(=O)(=O)CCNCc1ccc(-c2ccc3ncnc(Nc4ccc(OCc5cccc(F)c5)c(Cl)c4)c3c2)o1 [Lapatinib] (first compound max 1 µM, 7x7, partner max 10 µM), the Bliss excess [1] was 0.0434, the Bliss excess [2] was -0.0591 and the Bliss excess [3] was -0.0498. It also gave a Bliss excess (NCI-H2818 (Mesothelioma) [4]) of -0.0651, a Bliss excess [5] of -0.0311 and a Bliss excess [6] of -0.0039. It also gave a Bliss excess (ES1 (Ewing's Sarcoma) [7]) of -0.0215, a Bliss excess [8] of -0.0268 and a Bliss excess (WIL2-NS (Non-Cancerous) [10]) of 0.0039. The Bliss excess (WM-115 (Melanoma) [11]) was -0.0897, the Bliss excess [13] was -0.0168 and the Bliss excess [14] was -0.0303. The Bliss excess [15] was -0.0246, the Bliss excess [16] was 0.0557 and the Bliss excess (ES8 (Ewing's Sarcoma) [17]) was -0.0229. For the same compound, the Bliss excess [18] was -0.005, the Bliss excess [20] was -0.0271 and the “combination Emax” value [21] was 0.855. For the same compound, the “combination Emax” value [22] was 0.254, the “combination Emax” value [23] was 0.185 and the “combination Emax” value (NCI-H2818 (Mesothelioma) [24]) was 0.174. For the same compound, the “combination Emax” value [25] was 0.345, the “combination Emax” value [26] was 0.451 and the “combination Emax” value (ES1 (Ewing's Sarcoma) [27]) was 0.381. The “combination Emax” value [28] was 0.81, the “combination Emax” value (WIL2-NS (Non-Cancerous) [30]) was 0.348 and the “combination Emax” value (WM-115 (Melanoma) [31]) was 0.237. For the same compound, the “combination Emax” value [33] was 0.136, the “combination Emax” value [34] was 0.397 and the “combination Emax” value [35] was 0.934. For the same compound, the “combination Emax” value [36] was 0.36, the “combination Emax” value (ES8 (Ewing's Sarcoma) [37]) was 0.506 and the “combination Emax” value [38] was 0.532. For the same compound, the “combination Emax” value [40] was 0.162.
